“Also recorded” adds a separate entry of the source.
How the values were obtained:
R575 = assay: Inhibition RIA of [3H]CsA binding to rabbit anti-cyclosporine antibodies R575; conditions: for affinity group for the rabbit antibodies: inhibition RIA, in words; for IC50: read-out: IC50 = Concentration for 50% inhibition, inhibition of [3H] dihydro CsA binding to rabbit antibody R575
Method: Serum antibodies were detected by a modification of the published radioimmunoassay (5, 12). […] Binding by diluted preimmune serum was used as a control. Free and bound ligand were separated with charcoal supplied by Sandoz according to their procedure. […] The cyclosporin derivatives were dissolved in 100% ethanol at a concentration of 5.0 mg/ml, stored at -20° C., and diluted to final concentrations of 0.27 nM to 2.7 μM in Sandoz buffer B for the inhibition experiments.

G7 1.1 = assay: ELISA inhibition by singly modified Cs-derivatives, McAb G7 1.1; assay type: binding, BALB/c mice; conditions: group I; McAb binds selectively to Thr^2 -Cs-BSA coating
Method: (§1) A second ELISA Procedure used conjugates of D-Lys^8 -Cs-BSA and Thr^2 -Cs-BSA for coating (Queeniaux et al., 1987b). An indirect detection system consisting of rabbit anti-mouse Ig followed by alkaline phosphates-conjugated goat anti-rabbit IgG was performed as previously described (Queenlaux et al., 1987b).
(§2) The binding of the 22 McAbs to these two Cs-BSA conjugates was also found to correlate well with their fine specificity patterns, as characterized with a set of 28-36 Cs derivatives. Typical ELISA curves showing McAb binding either to D-Lys^8 -Cs-BSA (panel A) or to Thr^2 -Ca-BSA (panel B) and inhibited by Cs or Cs derivatives are shown in FIGS. 8A-8B, D-Lys^8 -Cs-BSA was subsequently used for coating in the inhibition experiments, except for those McAbs binding selectively to Thr^2 -Cs-BSA (see Table 4 and FIGS. 7A-7C). An example of the binding of 26 Cs derivatives by McAbs belonging to each of the five specificity groups mentioned above is reported in Table 5. The results are expressed as the difference of IC50 (in log10) between the Cs derivatives and Cs. All Cs-derivatives used in this study were selected for having a conserved peptide ring conformation compared with CsA (as determined in NMR or X-ray diffraction).

H4 1.3 = assay: ELISA inhibition by singly modified Cs-derivatives, McAb H4 1.3; assay type: binding, BALB/c mice; conditions: group II; D-Lys^8 -Cs-BSA coating
Method: as §1, §2

H6 1.5 = assay: ELISA inhibition by singly modified Cs-derivatives, McAb H6 1.5; assay type: binding, BALB/c mice; conditions: group III; D-Lys^8 -Cs-BSA coating
Method: as §1, §2

B11 1.4 = assay: ELISA inhibition by singly modified Cs-derivatives, McAb B11 1.4; assay type: binding, BALB/c mice; conditions: group IV; D-Lys^8 -Cs-BSA coating
Method: as §1, §2

C4 2.2 = assay: ELISA inhibition by singly modified Cs-derivatives, McAb C4 2.2; assay type: binding, BALB/c mice; conditions: group V; McAb binds selectively to Thr^2 -Cs-BSA coating
Method: as §1, §2

| SMILES | affinity group for the rabbit antibodies (R575) | affinity group for the rabbit antibodies (R575; listed as CSC) | IC50 (R575) [nM] | log10 difference in the concentrations of Cs-derivatives and unmodified Cs required to achieve 50% inhibition in ELISA, McAb G7 1.1 (G7 1.1) [log10] | log10 difference in the concentrations of Cs-derivatives and unmodified Cs required to achieve 50% inhibition in ELISA, McAb H4 1.3 (H4 1.3) [log10] | log10 difference in the concentrations of Cs-derivatives and unmodified Cs required to achieve 50% inhibition in ELISA, McAb H6 1.5 (H6 1.5) [log10] | log10 difference in the concentrations of Cs-derivatives and unmodified Cs required to achieve 50% inhibition in ELISA, McAb B11 1.4 (B11 1.4) [log10] | log10 difference in the concentrations of Cs-derivatives and unmodified Cs required to achieve 50% inhibition in ELISA, McAb C4 2.2 (C4 2.2) [log10] | inhibition of [^3 H] CsA binding obtainable (R575; maximal inhibition) |
| --- | --- | --- | --- | --- | --- | --- | --- | --- | --- |
| C/C=C/C[C@@H](C)[C@@H](O)[C@H]1C(=O)N[C@@H]([C@@H](C)O)C(=O)N(C)CC(=O)N(C)[C@@H](CC(C)C)C(=O)N[C@@H](C(C)C)C(=O)N(C)[C@@H](CC(C)C)C(=O)N[C@@H](C)C(=O)N[C@H](C)C(=O)N(C)[C@@H](CC(C)C)C(=O)N(C)[C@@H](CC(C)C)C(=O)N(C)[C@@H](C(C)C)C(=O)N1C [CsC] | Moderate affinities | moderate affinities | 11.5 |  |  |  |  |  |  |
| C/C=C/C[C@@H](C)[C@@H](O)[C@H]1C(=O)N[C@@H](C(C)C)C(=O)N(C)CC(=O)N(C)[C@@H](CC(C)C)C(=O)N[C@@H](C(C)C)C(=O)N(C)[C@@H](CC(C)C)C(=O)N[C@@H](C)C(=O)N[C@H](C)C(=O)N(C)[C@@H](CC(C)C)C(=O)N(C)[C@@H](CC(C)C)C(=O)N(C)[C@@H](C(C)C)C(=O)N1C [CsD] | high affinity; also recorded: bind best |  | 4.3 |  |  |  |  |  |  |
| C/C=C/C[C@@H](C)[C@@H](O)[C@H]1C(=O)N[C@@H](CC)C(=O)N(C)[C@H](C)C(=O)N(C)[C@@H](CC(C)C)C(=O)N[C@@H](C(C)C)C(=O)N(C)[C@@H](CC(C)C)C(=O)N[C@@H](C)C(=O)N[C@H](C)C(=O)N(C)[C@@H](CC(C)C)C(=O)N(C)[C@@H](CC(C)C)C(=O)N(C)[C@@H](C(C)C)C(=O)N1C [Sar^3 D-MeAla] |  |  |  | 1.2 | 1.3 | 1.4 | < 0.0 | 1.2 |  |
| C/C=C/C[C@@H](C)[C@@H](O)[C@H]1C(=O)N[C@@H](CC)C(=O)N(C)C(COC(C)=O)C(=O)N(C)[C@@H](CC(C)C)C(=O)N[C@@H](C(C)C)C(=O)N(C)[C@@H](CC(C)C)C(=O)N[C@@H](C)C(=O)N[C@H](C)C(=O)N(C)[C@@H](CC(C)C)C(=O)N(C)[C@@H](CC(C)C)C(=O)N(C)[C@@H](C(C)C)C(=O)N1C (stereo partly shown) [Sar^3 O-Acetyl-MeSer] |  |  |  | 1.2 | 2.1 | 2.2 | 0.4 | 1.5 |  |
| C/C=C/C[C@@H](C)[C@@H](O)[C@H]1C(=O)N[C@@H](CC)C(=O)N(C)CC(=O)N(C)[C@@H](CC(C)C)C(=O)N(C)[C@@H](CC(C)C)C(=O)N(C)[C@@H](CC(C)C)C(=O)N[C@@H](C)C(=O)N[C@H](C)C(=O)N(C)[C@@H](CC(C)C)C(=O)N(C)[C@@H](CC(C)C)C(=O)N(C)[C@@H](C(C)C)C(=O)N1C [Val^5 MeLeu] |  |  |  | 1.0 | 1.2 | 0.3 | 0.0 | < 0.0 |  |
| C/C=C/C[C@@H](C)[C@@H](O)[C@H]1C(=O)N[C@@H](CC)C(=O)N(C)CC(=O)N(C)[C@@H](CC(C)C)C(=O)N[C@@H](CCSC)C(=O)N(C)[C@@H](CC(C)C)C(=O)N[C@@H](C)C(=O)N[C@H](C)C(=O)N(C)[C@@H](CC(C)C)C(=O)N(C)[C@@H](CC(C)C)C(=O)N(C)[C@@H](C(C)C)C(=O)N1C [Val^5 Met] |  |  |  | < 0.0 | 1.5 | < 0.0 | 0.0 | < 0.0 |  |
| C/C=C/C[C@@H](C)[C@@H](O)[C@H]1C(=O)N[C@@H](CCC)C(=O)N(C)CC(=O)N(C)[C@@H](CC(C)C)C(=O)N[C@@H](CCC)C(=O)N(C)[C@@H](CC(C)C)C(=O)N[C@@H](C)C(=O)N[C@H](C)C(=O)N(C)[C@@H](CC(C)C)C(=O)N(C)[C@@H](CC(C)C)C(=O)N(C)[C@@H](C(C)C)C(=O)N1C [Val^5 NVa^2, Nva^5] |  |  |  | 0.5 | 1.2 | 0.2 | 0.2 | 0.1 |  |
| C/C=C/C[C@@H](C)[C@@H](O)[C@H]1C(=O)N[C@@H](CC)C(=O)N(C)CC(=O)N(C)[C@@H](CC(C)C)C(=O)N[C@@H](C(C)C)C(=O)N(C)[C@@H](CC(C)C)C(=O)N[C@@H](C)C(=O)N[C@H](C)C(=O)N(C)[C@@H](CC(C)C)C(=O)N(C)[C@@H](CC(C)C)C(=O)N(C)[C@@H]([C@@H](C)CC)C(=O)N1C [compound 032] | high affinity; also recorded: bind best |  | 7 |  |  |  |  |  |  |
| C/C=C/C[C@@H](C)[C@@H](O)[C@H]1C(=O)N[C@@H](CC)C(=O)N(C)CC(=O)N(C)[C@@H](CC(C)C)C(=O)N[C@@H](C(C)C)C(=O)N(C)[C@H](C)C(=O)N[C@@H](C)C(=O)N[C@H](C)C(=O)N(C)[C@@H](CC(C)C)C(=O)N(C)[C@@H](CC(C)C)C(=O)N(C)[C@@H](C(C)C)C(=O)N1C [compound 039] | Moderate affinities |  | 18 |  |  |  |  |  |  |
| C/C=C/C[C@@H](C)[C@@H](OC(C)=O)[C@H]1C(=O)N[C@@H](CC)C(=O)N(C)CC(=O)N(C)[C@@H](CC(C)C)C(=O)N[C@@H](C(C)C)C(=O)N(C)[C@@H](CC(C)C)C(=O)N[C@@H](C)C(=O)N[C@H](C)C(=O)N(C)[C@@H](CC(C)C)C(=O)N(C)[C@@H](CC(C)C)C(=O)N(C)[C@@H](C(C)C)C(=O)N1C [compound 243] | high affinity; also recorded: bind best |  | 6 |  |  |  |  |  |  |
| C/C=C/C[C@@H](C)[C@@H](O)[C@H]1C(=O)N[C@@H](CC)C(=O)N2CCC[C@H]2C(=O)N(C)[C@@H](CC(C)C)C(=O)N[C@@H](C(C)C)C(=O)N(C)[C@@H](CC(C)C)C(=O)N[C@@H](C)C(=O)N[C@H](C)C(=O)N(C)[C@@H](CC(C)C)C(=O)N(C)[C@@H](CC(C)C)C(=O)N(C)[C@@H](C(C)C)C(=O)N1C [compound 582] | Moderate affinities |  | 12 |  |  |  |  |  |  |
| C/C=C/C[C@@H](C)[C@@H](O)[C@H]1C(=O)N[C@@H]([C@@H](C)OC(C)=O)C(=O)N(C)CC(=O)N(C)[C@@H](CC(C)C)C(=O)N[C@@H](C(C)C)C(=O)N(C)[C@@H](CC(C)C)C(=O)N[C@@H](C)C(=O)N[C@H](C)C(=O)N(C)[C@@H](CC(C)C)C(=O)N(C)[C@@H](CC(C)C)C(=O)N(C)[C@@H](C(C)C)C(=O)N1C [compound 665] | high affinity; also recorded: bind best |  | 4.8 |  |  |  |  |  |  |
| C/C=C/C[C@@H](C)[C@@H](O)[C@H]1C(=O)N[C@@H](CC)C(=O)N(C)CC(=O)N(C)[C@@H](CC(C)C)C(=O)N[C@@H](C(C)C)C(=O)N(C)[C@@H](CC(C)C)C(=O)N[C@@H](C)C(=O)N[C@H](COC(C)(C)C)C(=O)N(C)[C@@H](CC(C)C)C(=O)N(C)[C@@H](CC(C)C)C(=O)N(C)[C@@H](C(C)C)C(=O)N1C [compound 717] | inhibits very poorly; also recorded: low affinity |  | 2700 |  |  |  |  |  | more than 50% |

From US6177253A, “Screening methods for the identification of anti-HIV compounds employing a cyclosporine-specific monoclonal antibody that cross-reacts with HIV-1 p24” (priority 1998, dated 2001)
